Data as given in PMC11117721, “A Fast-Binding, Functionally Reversible, COX-2 Radiotracer for CNS PET Imaging” (ACS Central Science, 2024).

Biological target: T1, COX-2 (Homo sapiens, UniProt P35354)
T1 sequence (P35354 18-604): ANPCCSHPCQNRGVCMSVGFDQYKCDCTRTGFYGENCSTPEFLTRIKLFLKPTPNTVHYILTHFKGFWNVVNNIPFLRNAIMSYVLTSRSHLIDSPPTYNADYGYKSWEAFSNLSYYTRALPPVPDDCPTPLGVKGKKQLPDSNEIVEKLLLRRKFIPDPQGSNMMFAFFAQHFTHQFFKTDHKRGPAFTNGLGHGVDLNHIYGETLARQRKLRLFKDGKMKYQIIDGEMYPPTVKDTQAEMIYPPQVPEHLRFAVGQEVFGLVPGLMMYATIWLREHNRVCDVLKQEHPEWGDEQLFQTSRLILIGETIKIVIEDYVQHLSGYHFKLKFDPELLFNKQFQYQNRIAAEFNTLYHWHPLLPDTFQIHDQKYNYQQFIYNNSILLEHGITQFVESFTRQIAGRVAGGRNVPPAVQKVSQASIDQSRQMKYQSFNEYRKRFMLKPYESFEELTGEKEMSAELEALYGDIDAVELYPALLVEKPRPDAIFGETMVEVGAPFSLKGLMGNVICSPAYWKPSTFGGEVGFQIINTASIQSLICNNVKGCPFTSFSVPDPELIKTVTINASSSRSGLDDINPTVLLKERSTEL
Assay: PET imaging of h-Thy1 COX-2 transgenic mice
Format: in vivo, mouse
Parameters: FLAG; P2A linker remnant (GFP cassette co-expressed, separated by P2A); host or cells: rat striatal (caudate putamen) neurons transduced in vivo with AAV2, human synapsin promoter
Conditions: for SUV Average (9–21 min): h-Thy1 COX-2 mice (n = 5)
Excerpt: We performed additional validation of [^11C]BRD1158 through in vivo PET imaging of an hCOX-2 transgenic mouse line (Figure 3), which overexpressed human COX-2 primarily in neurons (Strain No. 010703, Jackson Laboratories). […] While we did perform contralateral sham (control virus) injections in the AAV rats to assess potential injection confounds, as COX-2 is part of the injury and inflammation response, it was important to validate in a model naïve to brain insult to mitigate how aspects of the AAV rat experimental design could have misled our interpretations of tracer specific binding.
In accordance with Massachusetts General Hospital Institutional Animal Care and Use Committee (IACUC) protocols, Sprague Dawley rats (300-500g, Charles River Laboratories), wildtype mice (Strain C57BL/6J), and human Thy-1-COX-2 transgenic line 303 mice (Strain 010703, Jackson Laboratories) were used in these studies. All animals were housed in a standard animal facility with access to conventional rodent food and water ad libitum and a 12 -hour day/night schedule. All animals were allowed to acclimate before any experime ntal procedures. Only male animals were used for imaging experiments .
Animals were induced under anesthesia using 1 -3% isoflurane in a carrier of 1.0 -1.5 L/min oxygen.
Maintenance of isoflurane depended on procedure and species, rats 2 -3% and mice 1-2%. Rats undergoing surgeries had higher isoflurane maintenance at 3 -4%. After induction, the animals’ body temperatures were regulated using a support heating pad or fan throughout all experiments.
Respiratory rates and body temperature were monitored through all imaging and surgical procedures, generally using a respiratory pad and rectal probe. Injections were made through the lateral tail vein.
Rats were cannulated with an IV extension using a 60 in, 0.3 mL volume IV extender (Smith Medical) and a 24 ga x 0.75 in IV catheter (McKesson). Mice were cannulated with Intramedic PE10 tubing (BD […]
Group 2 animals then […]
received one 4µL ICV injection of AAV2-GFP-hCOX2 to the Rcpu and one 4µL ICV injection of AAV2-GFP to the Lcpu, an injection paradigm that successfully led to robust, localized, unilateral COX -2 expression that we could use to compare radiotracers (Figure 2, SI Figure 8). Another rat (animal ID SD2006080) received one 4µL ICV injection of AAV2-GFP-hCOX2 to the Rcpu and no left caudate sham injection (SI
Figure 9). All surgical procedures were performed aseptically. Once rats were prepared and secured with a stereotaxic device (Stoelting Co, Wood Dale, IL), bregma was located. […]
A 33 -gauge neuro syringe (Hamilton, Reno, NV) was inserted around DV 3.5 mm for one injection. I njections were given slowly and the needle was kept in for 15 min to allow for adequate perfusion. […]

## [11CH3]S(=O)(=O)c1ccc(-c2cccc(NCc3ccoc3)n2)cc1 [[^11C]BRD1158]
cerebellum
  SUV Average (9–21 min): 1.84 ± 0.56
cortex
  SUV Average (9–21 min): 1.68 ± 0.50
striatum
  SUV Average (9–21 min): 1.95 ± 0.55
hCOX-2 transgenic mice
  time to significant signal differentiation from wild-type controls: 10 to 20 min
